The text below walks through data of publication PMC7848139, “Novel Hybrid CHC from β-carboline and N-Hydroxyacrylamide Overcomes Drug-Resistant Hepatocellular Carcinoma by Promoting Apoptosis, DNA Damage, and Cell Cycle Arrest” (Frontiers in Pharmacology, 2021).

Structures are written as SMILES.

For one assay, the target named is T1, recombinant human HDAC1 (Homo sapiens, UniProt Q13547).
T1 construct: purchased Enzo Life Sciences Inc
The assay can be described thus: HDAC fluorimetric assay, HDAC1. The assay is classed as biochemical. The procedure: (§1) The assay was conducted according to the HDAC1/3/6/8 assay kit (Enzo Life Sciences Inc.). Each different concentrations of evaluated compounds were, respectively, incubated with each HDAC1/3/6/8 at coupling of corresponding HDAC substrate (Boc-Lys (Ac)-AMC) at 37°C for 60 min. Then stopping the reaction under adding lysine developer.

Assay [1] relates to SUMM-7721, Bel7402, Huh7, HCT116 and Bel7402/5FU cells. The assay can be described thus: MTT antiproliferative assay, range over the five cancer cell lines. It counts as cell-based. As to conditions: Homo sapiens; range over drug-sensitive SUMM-7721, Bel7402, Huh7, HCT116 and drug-resistant Bel7402/5FU cells. The procedure:
(§2) Briefly, appropriate cells (1 × 10^4 cells/mL) were placed into 96-well plates in 100 μL of DMEM medium overnight. Then adding 100 μL of evaluated compounds into individual well for 72 h while 0.1% DMSO aqueous solution was treated as the negative control. After incubation with 30 μl MTT (5 mg/mL) for 4 h in all well, and ELISA plate reader measured absorbance of each well at 570 nm. Then calculating cytotoxicity effect of evaluated compounds through the formula: Cell inhibitory percentage (%) = (1−OD of treatment group/OD of control) × 100%.

A further assay concerns SMMC-7721. Description: MTT antiproliferative assay, SMMC-7721. The assay is classed as cell-based. Conditions: Homo sapiens, 72 h, mean ± SD of three experiments, read-out: In vitro antiproliferative activity (IC50) SMMC-7721. The procedure: as §2
(Tetrazolium dyes change colour on reduction, which living cells bring about.)

A further assay deals with Bel7402/5-FU cells. Description: Cell cycle analysis by flow cytometry. The assay is classed as cell-based, human. As to conditions: 2.0 and 5.0 μM, 72 h. As for the experimental part: The collected cells were ﬁxed in 70% ethanol at 4°C overnight, and then incubated with RNase A and using PI (Sigma-Aldrich) to stain. Flow cytometry evaluated the percent of Deoxyribonucleic acid (DNA) on ﬂow cytometer (Beckman Coulter). The ModFit LT (Verity, Software House, Topsham, ME, United States) analyzed distribution of cell cycles.
FIGURE 9 CHC caused G2/M arrest in Bel7402/5-FU cells (A) Bel7402/5-FU cells were treated with CHC at different concentrations (0, 2.0, and 5.0 μM) for 72 h; (B) Quantification of cell distribution per phase. Values (mean ± SD) were obtained from three separate experiments. *p < 0.01 vs. control.

The test system of the next assay is Bel7402. Description: MTT antiproliferative assay, Bel7402. The assay is classed as cell-based. As to conditions: Homo sapiens, Bel-7402, 72 h, mean ± SD of three experiments, read-out: In vitro antiproliferative activity (IC50) Bel7402. The procedure: as §2
The test system of a further assay is CT-DNA. Description: UV-visible spectroscopy titrations with CT DNA. It counts as binding, calf. As to conditions: 20 μM compound, equal increments of CT-DNA, 25°C. The procedure: The ultraviolet spectrophotometer (UV2500, Shimadzu, Tokyo, Japan) recorded UV–visible spectroscopy under titrations at 25°C. Tris buffer (5 mM) was used to prepare Stock solutions of CT DNA (20 μM, calf thymus DNA) comprising ideal structure of double stranded DNA. Dissolving synthesized derivative in 1:1000 DMSO/Milli Q water to prepare stock solutions of them (20 μM). UV–visible absorption titrations were carried out with addition of 100 μl CT DNA solution to 4 ml solution of tested compound in quartz cuvette each time interval. Until the absorption band of complex containing synthesized derivative and CT DNA kept at a stable wavelength after adding CT DNA successfully for five times, titrations were finished. Finally, spectrophotometer noted the absorption spectra (250–500 nm).
FIGURE 7 UV-visible absorption spectra of CHC after adding equal amounts of CT DNA. Arrows indicate changes in absorbance with increasing concentrations of DNA [CHC] = 20 μM.

A further assay addresses T2, recombinant human HDAC6 (Homo sapiens, UniProt Q9UBN7).
T2 construct: purchased Enzo Life Sciences Inc
T2 sequence (Q9UBN7 1-1215): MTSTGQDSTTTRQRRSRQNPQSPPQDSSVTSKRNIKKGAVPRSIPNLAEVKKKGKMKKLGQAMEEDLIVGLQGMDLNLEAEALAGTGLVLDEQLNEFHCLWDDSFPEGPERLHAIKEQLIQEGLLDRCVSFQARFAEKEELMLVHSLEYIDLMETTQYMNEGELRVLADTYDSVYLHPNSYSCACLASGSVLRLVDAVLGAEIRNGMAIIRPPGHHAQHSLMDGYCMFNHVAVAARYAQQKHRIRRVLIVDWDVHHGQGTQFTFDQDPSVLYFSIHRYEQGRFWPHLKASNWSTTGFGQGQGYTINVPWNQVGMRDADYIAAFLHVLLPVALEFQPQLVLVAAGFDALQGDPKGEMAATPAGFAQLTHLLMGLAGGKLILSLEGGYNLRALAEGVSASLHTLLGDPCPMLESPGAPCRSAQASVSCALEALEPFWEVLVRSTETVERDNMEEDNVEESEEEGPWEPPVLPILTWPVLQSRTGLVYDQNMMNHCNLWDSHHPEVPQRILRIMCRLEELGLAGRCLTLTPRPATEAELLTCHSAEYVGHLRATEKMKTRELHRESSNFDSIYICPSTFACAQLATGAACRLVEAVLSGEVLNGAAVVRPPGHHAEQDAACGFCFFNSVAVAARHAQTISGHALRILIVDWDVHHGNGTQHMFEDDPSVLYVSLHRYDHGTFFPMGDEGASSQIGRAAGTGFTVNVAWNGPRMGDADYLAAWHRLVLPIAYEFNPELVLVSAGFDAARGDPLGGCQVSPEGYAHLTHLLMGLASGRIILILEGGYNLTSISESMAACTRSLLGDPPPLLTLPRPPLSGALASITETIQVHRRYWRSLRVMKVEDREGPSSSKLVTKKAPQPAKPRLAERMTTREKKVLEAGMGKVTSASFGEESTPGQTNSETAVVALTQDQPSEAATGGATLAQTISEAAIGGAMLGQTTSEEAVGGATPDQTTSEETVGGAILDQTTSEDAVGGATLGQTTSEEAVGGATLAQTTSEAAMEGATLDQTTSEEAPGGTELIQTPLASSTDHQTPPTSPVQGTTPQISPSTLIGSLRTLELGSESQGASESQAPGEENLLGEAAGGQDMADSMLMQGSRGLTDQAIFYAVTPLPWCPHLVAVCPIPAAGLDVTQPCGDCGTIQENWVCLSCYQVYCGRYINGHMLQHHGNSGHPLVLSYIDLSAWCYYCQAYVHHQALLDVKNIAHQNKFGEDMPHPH
The assay can be described thus: HDAC fluorimetric assay, HDAC6. It counts as biochemical. The procedure: as §1

T1 sequence (Q13547 whole entry): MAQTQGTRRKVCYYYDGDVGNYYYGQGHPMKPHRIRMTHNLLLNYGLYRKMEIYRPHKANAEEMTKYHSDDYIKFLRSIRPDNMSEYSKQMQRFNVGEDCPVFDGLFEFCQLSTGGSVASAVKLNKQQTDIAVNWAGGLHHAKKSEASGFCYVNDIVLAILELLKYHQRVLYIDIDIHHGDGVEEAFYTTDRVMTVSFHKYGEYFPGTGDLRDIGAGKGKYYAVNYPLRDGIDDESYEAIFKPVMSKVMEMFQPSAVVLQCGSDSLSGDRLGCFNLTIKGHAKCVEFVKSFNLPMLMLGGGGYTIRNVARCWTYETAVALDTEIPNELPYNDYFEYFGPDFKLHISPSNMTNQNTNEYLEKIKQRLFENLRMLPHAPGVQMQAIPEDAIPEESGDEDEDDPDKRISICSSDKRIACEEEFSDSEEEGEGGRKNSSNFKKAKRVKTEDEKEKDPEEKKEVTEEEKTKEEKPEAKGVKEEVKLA

`CN(C)c1ccc(-c2nc(C(=O)NCc3ccc(/C=C/C(=O)NO)cc3)cc3c2[nH]c2ccccc23)cc1` [CHC, (E)-N-(4-(3-(hydroxyamino)-3-oxoprop-1-en-1-yl)benzyl)-1-(4-dimethylaminophenyl)-9H-pyrido [3,4-b]indole-3-carboxamide]: the “IC50 on HDAC1 relative to SAHA” value at recombinant human HDAC1 (compared with SAHA) is listed as “approximately five-fold lower”. Moreover, the IC50 (usually the concentration needed to halve the response being measured) is 29 ± 3 nM at recombinant human HDAC1 (mean ± SD of three experiments); 1840 to 3270 nM in assay [1]; 3270 ± 360 nM in the assay with SMMC-7721; 1840 ± 230 nM in the assay on Bel7402; 7.6 ± 1 nM on recombinant human HDAC6 (mean ± SD of three experiments). For the same compound, the “fold lower IC50 on HDAC1 than on HDAC3” value on recombinant human HDAC1 (selectivity HDAC1 over HDAC3) is recorded as 4 fold. In the assay with Bel7402/5-FU cells, the cell cycle arrest entry was “significantly induced cell cycle arrest at the G2/M phase in a dose-dependent manner”. Also, the “change of UV-visible absorption upon adding CT-DNA” value with CT-DNA is on record as “absorption at all wavelengths gradually decreased”. The “IC50 on HDAC6 relative to SAHA” value at recombinant human HDAC6 (compared with SAHA) is “eight-fold lower”. Further, the “fold lower IC50 on HDAC6 than on HDAC3” value at recombinant human HDAC6 (selectivity HDAC6 over HDAC3) turned out to be 18 fold.
